Measurements published in patent US11135309B2, “Poly(vinyl alcohol) nanocarriers” (THE REGENTS OF THE UNIVERSITY OF CALIFORNIA, priority 2015, dated 2021).
One block for each molecule: values may come before it.

Legend:
[1] = serum chemistry (hepatic and renal function panel) in the therapeutic study; type: in vivo, mice; settings: day 7 after the last dosage
Method: (§1) Tumor bearing mice (n=6-8) were intravenously administered PBS; Velcade® (0.8 mg/kg); BTZ-PVA (0.8, 1.2 mg/kg); DOX (4 mg/kg); DOX-DCMs (4 mg/kg); BTZ 0.8 mg/kg followed by DOX 4 mg/kg 24 h later; or BTZ-PVA 0.8 mg/kg followed by DOX-DCMs 24 h later every four days for a total of 6 doses. Data represent mean±SEM.

[2] = blood cell count after the last dosage in the therapeutic study; type: in vivo, mice
Method: as §1

[3] = cumulative BTZ release in PBS medium; type: physicochemical; settings: PBS pH 7.4, within the first 3 h
[4] = in vivo toxicity evaluation; set-up: species or system mice; settings: 5 days after the last dose
Method: Phototherapy and tumor response. Subcutaneous SKOV-3 tumor-bearing mice were used for in vivo therapeutic study when tumor volumes reached 80-120 mm^3 (designate as Day 0). The therapeutic efficacy and toxicity profiles of different PPNs formulations were evaluated. On day 0, all mice were randomly divided into seven groups (n=6). Mice were intravenously administered with PBS, blank PPNs, DOX·HCl and PPNs-DOX. The DOX was given at the dose of 2.5 mg/kg, and PPNs was given at the dose of 2 mg/kg, calculated on the porphyrin content. The treatment was given every 5 days on day 0, 5, 10 and 15 for a total 4 doses. […] Tumor size and body weight were measured twice a week. Tumor volume was calculated using the equation (L×W^2)/2, where L is the longest and W is shortest in tumor diameters (mm). For humane reasons, mice were sacrificed when tumor volume reached 1000 mm^3, which was considered as the end point of survival data. At day 5 after the last dosage, blood samples were collected from each group to test blood cell counts and serum chemistry.
In vivo toxicity evaluation. The potential toxicity of PPNs and the related formulations was assessed in all treated mice. The body weight change, blood cell counts and serum chemistry including renal and hepatic function panels were monitored. […]

[5] = test system: subcutaneous SKOV-3 tumor; test: phototherapy and tumor response; type: in vivo, mice
Method: Phototherapy and tumor response. Subcutaneous SKOV-3 tumor-bearing mice were used for in vivo therapeutic study when tumor volumes reached 80-120 mm^3 (designate as Day 0). The therapeutic efficacy and toxicity profiles of different PPNs formulations were evaluated. On day 0, all mice were randomly divided into seven groups (n=6). […] The DOX was given at the dose of 2.5 mg/kg, and PPNs was given at the dose of 2 mg/kg, calculated on the porphyrin content. The treatment was given every 5 days on day 0, 5, 10 and 15 for a total 4 doses. […] Tumor size and body weight were measured twice a week. Tumor volume was calculated using the equation (L×W^2)/2, where L is the longest and W is shortest in tumor diameters (mm). For humane reasons, mice were sacrificed when tumor volume reached 1000 mm^3, which was considered as the end point of survival data.

[6] = test system: SKOV-3 ovarian cancer cells; test: cellular uptake (flow cytometry, confocal microscopy); type: cell-based
Method: The uptake profiles of DOX-loaded PPNs in SKOV-3 ovarian cancer cells were qualitatively observed by confocal microscopy. SKOV-3 cells were seeded in an 8-well slide. […] Then the cells were washed thrice with PBS buffer, fixed with 4% paraformaldehyde for 15 min. The nuclei were stained with DAPI. The slides were mounted with coverslips and observed by confocal microscopy.
The cellular uptake efficiency of PPNs in SKOV3 ovarian cancer cells was quantified with flow cytometry at different incubation time points (FIG. 19a). […] Additionally, a marked increase in porphyrin fluorescence from PPNs was visualized in the cytoplasm at 6 hrs, compared to that at 30 min after incubation.

[7] = in vitro DOX release from PPNs by dialysis; type: physicochemical; settings: PBS 37° C., within the first 5 hrs
Method: In vitro drug release profiles were carried out using the dialysis method. Aliquots of DOX-loaded PPNs solution were injected into a dialysis cartridge with a molecular weight cutoff of 3.5 kDa. The whole dialysis process was carried out at 37° C. with swirling at 70 rpm in the presence of 10 g/L activated charcoal in 1 L PBS buffer. The concentration of DOX remained in the dialysis cartridge at various time points was determined by absorbance measurement.

[8] = test system: subcutaneous MDA-MB-231 breast cancer xenografts; test: in vivo therapeutic study, breast cancer xenograft; set-up: species or system nude mice; settings: 5 mg/kg intravenous, every four day, 6 doses
Method: In vivo therapeutic study. Subcutaneous MDA-MB-231 breast cancer xenografts were implanted into nude mice as described above. […] On day 0, these mice were randomly divided into three groups, with five mice in each group. […] Tumor volume was calculated by the formula (L×W^2)/2, where L is the longest and W is the shortest in tumor diameters(mm). Anti-tumor efficacy in breast cancer xenograft mouse mode The anti-tumor effects of DOX-PVA-LA NPs after intravenous injection were evaluated in subcutaneous MDA-MB-231 tumor bearing mice.

[9] = in vitro DOX release from PVA-LA NPs by dialysis; type: physicochemical; settings: PBS, within 1 h
Method: Drug release study. DOX-loaded Cr-PVA-LA NPs solution was prepared to determine the in vitro drug release profile. The initial DOX concentration was 1.0 mg/mL, Aliquots of the DOX-loaded Cr-PVA-LA NPs solution were injected into dialysis cartridges with 3.5 kDa MWCO. The cartridges were dialyzed against 100 volume times PBS solution at 37° C. and rotator rate was set to 100 rpm. […] Values were reported as the means for each triplicate samples.
Loading and Triggered Release of DOX. […] The accumulated release results shown in FIG. 14 represent the total amount of DOX released from different sample. […] More than 50% of DOX were release within 1 h. […] It should be further noted that no burst release was observed even in the presence of NAC. The unique core-shell structure contributes to the constant release rate. This biodegradable PVA-LA NPs is a highly promising approach to controlled drug release.

BUN ([1]; 0.8 mg/kg): 16.3 ± 2.1 mg/dL
Creatinine ([1]; 0.8 mg/kg): 0.2 ± 0.1 mg/dL
Total Bilirubin ([1]; 0.8 mg/kg): 0.1 ± 0.0 mg/dL
Hemoglobin ([2]; 0.8 mg/kg): 14.6 ± 0.6 g/dL
Neutrophil cells ([2]; 0.8 mg/kg): 0.5 ± 0.4 K/μl
Platelets ([2]; 0.8 mg/kg): 1424.3 ± 146.2 K/μL
RBC ([2]; 0.8 mg/kg): 9.2 ± 0.5 M/μl
WBC ([2]; 0.8 mg/kg): 5.6 ± 1.3 K/μl
BTZ released [3]: about 80%
Compound: CC(C)C[C@H](NC(=O)[C@H](Cc1ccccc1)NC(=O)c1cnccn1)B(O)O [BTZ, [(1R)-3-methyl-1-({(2S)-3-phenyl-2-[(pyrazin-2-ylcarbonyl)amino]propanoyl}amino)butyl] boronic acid]
ALT ([1]; 0.8 mg/kg): 28.3 ± 3.3 U/L
AST ([1]; 0.8 mg/kg): 117.1 ± 26.4 U/L

Compound: COc1cccc2c1C(=O)c1c(O)c3c(c(O)c1C2=O)C[C@@](O)(C(=O)CO)C[C@@H]3O[C@H]1C[C@H](N)[C@H](O)[C@H](C)O1 [DOX, doxorubicin]
white blood cell counts [4]: certain decrease
tumor growth compared to PBS control ([5]; DOX 2.5 mg/kg iv days 0, 5, 10, 15, without light): did not exhibit obvious antitumor effect
survival compared to PBS control ([5]; without light): no obvious prolonged survival rate
ALT ([1]; 4 mg/kg): 42.6 ± 8.6 U/L
AST ([1]; 4 mg/kg): 167.7 ± 23.4 U/L
BUN ([1]; 4 mg/kg): 18.0 ± 2.6 mg/dL
Creatinine ([1]; 4 mg/kg): 0.2 ± 0.0 mg/dL
Total Bilirubin ([1]; 4 mg/kg): 0.1 ± 0.0 mg/dL
intracellular localization of DOX fluorescence ([6]; 30 min incubation): could be observed in the nuclei
intracellular localization of DOX fluorescence ([6]; 6 hrs incubation): completely transported into the nuclei
DOX released [7]: 90%
anti-tumor activity compared with PBS control [8]: significant anti-tumor activity
Hemoglobin ([2]; 4 mg/kg): 13.6 ± 0.9 g/dL
Neutrophil cells ([2]; 4 mg/kg): 0.5 ± 0.2 K/μl
Platelets ([2]; 4 mg/kg): 1618.2 ± 190.5 K/μL
RBC ([2]; 4 mg/kg): 8.3 ± 0.5 M/μl
WBC ([2]; 4 mg/kg): 5.8 ± 1.0 K/μl
DOX released [9]: More than 50%
